This series relates to gingival fibroblasts. As for the experimental part: To determine whether the co-administration of these two compounds was cytotoxic, the following experiments were carried out.

2 molecules from patent US20140205662A1, “SYSTEM AND METHOD FOR […] TIMED LOCAL […] OF A COMBINATION PHARMACEUTICAL PREPARATION FOR ORAL THERAPY” (The Research Foundation for The State University of New York, priority 2010, published 2014) can be followed below.

On to `C[C@H]1c2cccc(O)c2C(=O)C2=C(O)[C@]3(O)C(=O)C(C(N)=O)=C(O)[C@@H](N(C)C)[C@@H]3[C@@H](O)[C@@H]21` [doxycycline], for which the “cytotoxicity (in words)” value is “relatively increasing cytotoxicity with increasing concentration” and the relative cytotoxicity fell in the range of 0 to 0.231 mg/mL.
For `CC(C(=O)O)c1ccc(-c2ccccc2)c(F)c1` (stereo not shown) [flurbiprofen], the “cytotoxicity (in words)” value is listed as “relatively low cytotoxicity” and the relative cytotoxicity is 0 to 0.031 mg/mL.
